Source: patent US20080057010A1, “METHOD FOR SKIN CARE” (NULIV SCIENCE LTD., priority 2006, published 2008)

Assays:
collagen I [1] = experiment: Collagen I expression and secretion in human HDF cells (western blot); format: cell-based; settings: relative to 0 = 1.00
Method: Primary human dermal fibroblasts cells (HDF) were purchased from Cascade Biologics (Portland, Oreg., USA) and cultured in medium 106 supplemented with 10% fetal bovine serum (FBS), 100 IU/mL penicillin, 100 μg/mL of streptomycin. The cells from passages 4 to 10 were used for this study. Culture medium was replaced every other day. After confluence, the cells were subcultured following trypsinization. For subcultures cells were harvested after brief treatment with 0.1% trypsin/EDTA solution and seeded at a dilution of 1:10. The cells were seeded at 1×10^5 cells in 6-well culture plate for 24 h before treated with astragalosides or crude extracts, such as butanol fraction and water insoluble fraction of Astragalus membranaceus for the indicated time periods. Control cultures were maintained in medium supplemented with vehicle (dimethyl sulfoxide, DMSO, 0.1%). No growth and differentiation effects of DMSO were observed under these culture conditions.
(§1) The cells were treated with pure compounds such as astragaloside I (AS 1), astragaloside II (AS2), astragaloside III (AS3), astragaloside IV (AS4), astragaloside VI (AS6), isoastragaloside I (isoAS1), isoastragaloside II (isoAS2), and cycloastragenol 6-O-β-D-glucopyranose (AA) at concentrations of 0-10 μM. Alternatively, the cells were also treated with the crude extracts, such as butanol fraction and water insoluble fraction of Astragalus membranaceus at concentrations of 0, 1, 10, and 40 μg/mL. The cells were treated with the indicated compounds or the extracts for 24 h before harvested for analysis of collagen I and III expressed in the whole cell extract or secreted into the culture medium.
(§2) Western blot analysis was carried out on both of cultured medium and cell lysates. The cells were plated on 6-cm dishes at a density of 1×10^6 cells/dish for 24 h prior to treatment with indicated concentrations of astragalus triterpenoids as indicated for another 48 h. The conditioned culture mediums were then centrifuged, 2-fold concentrated and collected for assay of collagens and MMPs secreted into the culture medium. The cells were washed and lysed in 0.2 mL of lysis buffer (1% NP-40, 50 mM Tris-HCl, pH 7.4, 180 mM NaCl, 1 mM EDTA, 1 mM PMSF, 1 mM NaF, 10 mM Na3VO4) for 30 min at 4° C. After centrifuging at 17500 g for 15 min, the supernatants of cell lysate were also collected. Protein concentration of the samples were measured using the bicinchoninic acid (BCA) protein assay kit according to the manufacturer's protocol (Pierce, Rockford, Ill., USA). Equal amount of protein samples of concentrated conditioned medium (100 μg) or cell lysate supernatants (50 μg) were mixed with an appropriate volume of 4×SDS sampling buffer and separated by 8% SDS-PAGE gel. The protein bands separated in the SDS-PAGE gel were blotted onto a polyvinylidene fluoride (PVDF) membrane. The blotted PVDF membrane was washed twice and blocked in freshly prepared Tris-buffered saline (TBS) containing 0.1% Tween-20 and 7% skim milk (TBST) for 2 h at room temperature. The PVDF membrane was then incubated with either antibodies against collagen I and III or the housekeeping protein α-tubulin (Santa Cruz Biotechnology, Santa Cruz, Calif.) for 18 h at 4° C. Horseradish peroxidase-conjugated anti-goat antibody was used as secondary antibody. Signals were visualized by an enhanced chemiluminescence kit (Clonetech, Palo Alto, Calif., USA) followed by exposure to X-ray films.
The collagen expression in the human HDF cells was also determined. […] And Collage I was over-expressed in the cells treated with various doses (1, 10, 40 μg/mL) of the crude extracts, such as butanol fraction and water insoluble fraction of Astragalus membranaceus.

collagen I [2] = experiment: Collagen I expression in human HaCaT cells (western blot); format: cell-based; settings: relative to 0 μM = 1.00
Method: The Spontaneously transformed human keratinocyte cell lines HaCaT cells were grown at 37° C. in a humidified incubator under 5% CO2 and 95% air in culture medium such as Dulbecco Modified Eagle Medium (DMEM) supplemented with 10% Fetal Bovine Serum (FBS), 100 IU/mL penicillin, 100 μg/mL of streptomycin, 2 mM sodium pyruvate and 1% Non-Essential Amino Acids (NEAA). The culture medium was replaced every other day. After confluence, the cells were subcultured following trypsinization. For subcultures cells were harvested after brief treatment with 0.1% trypsin/ethylenediaminetetraacetic acid (EDTA) solution and seeded at a dilution of 1:10. Cells between passages 12 and 45 were used for studies. The cells were seeded and incubated for 24 h before treated with the astragalosides for 24 h. Control cultures were maintained in medium supplemented with vehicle (dimethyl sulfoxide (DMSO) 0.1%). No growth and differentiation effects of DMSO were observed under these culture conditions.
as §1, §2
Results shown represent the quantitated data from western blot analysis. […] The collagen I was also over-expressed in the human HaCaT cells treated with 40 μg/mL of astragaloside extract.

HA synthase 2 (HAS2) = experiment: Quantitative analysis of HA synthase 2 (HAS2) transcripts in HaCaT cells (qRT-PCR); format: cell-based, human; settings: 0.1 μM, qRT-PCR normalized to GAPDH, relative to 0 = 1.00
Method: Relative levels of HAS2 expression in HaCaT cells were determined by real-time quantitative reverse transcriptase polymerase chain reaction (qRT-PCR). Total RNAs were isolated from the cultured human cells using TRIzol reagent (Invitrogen, Irvine, Calif., USA). 1 μg of RNA was reverse transcribed, at 37° C. for 60 min in a 20 μl transcription mixture containing dNTP (0.5 mM), oligo-dT (0.1 μg), RNasin (10 units), 1×PCR buffer (20 mM Tris-HCl, pH 8.3; 2.5 mM MgCl2; 50 mM KCl), and 100 units of Moloney murine leukemia virus reverse transcriptase (Invitrogen). The cDNA product was phenol extracted, ethanol precipitated, and resuspended in 20 μl TE (20 mM Tris-Cl, pH 8.0 and 1 mM EDTA). qRT-PCR was performed using the Applied Biosystem 7300 system and pre-developed Taqman Gene Expression Assays (Applied Biosystems, Foster City, Calif., USA). The reaction mixtures (20-μl total volume) contained 2 μl of serially diluted cDNA, 10 μl of Taqman Universal PCR Master Mix (Applied Biosystems), and 1 μl of either human HAS-2 gene (assay ID Hs 00193435_ml, Applied Biosystems), or GAPDH primer mix (assay ID Hs99999905_ml, Applied Biosystems). The reactions were amplified as follows: 50° C. for 2 min and 95° C. for 10 min, followed by 40 cycles of 95° C. for 1 min and 65° C. for 1 min. Two independent triplicate experiments were performed for the selected genes. Relative quantitation was performed using the 7300 software (Applied Biosystems, Foster City, Calif., USA). Expression of HAS-2 was normalized to GAPDH expression in each sample.

| Compound | Collagen I in cell (collagen I [1]; 0.01 μM) | Collagen I in medium (collagen I [1]; 0.01 μM) | Collagen I in cell (collagen I [1]; 0.1 μM) | Collagen I in medium (collagen I [1]; 0.1 μM) | Collagen I in cell (collagen I [1]; 1 μM) | Collagen I in medium (collagen I [1]; 1 μM) | Collagen I in cell (collagen I [2]; 0.01 μM) | Collagen I in cell (collagen I [2]; 0.1 μM) | Collagen I in cell (collagen I [2]; 1 μM) | HAS-2 in cell (HA synthase 2 (HAS2)) |
| --- | --- | --- | --- | --- | --- | --- | --- | --- | --- | --- |
| CC(=O)O[C@H]1[C@H](O[C@H]2CC[C@]34C[C@]35CC[C@]3(C)[C@@H]([C@@]6(C)CC[C@@H](C(C)(C)O)O6)[C@@H](O)C[C@@]3(C)[C@@H]5C[C@H](O[C@@H]3O[C@H](CO)[C@@H](O)[C@H](O)[C@H]3O)[C@H]4C2(C)C)OC[C@@H](O)[C@@H]1O [AS2, astragaloside II] | 1.02 | 1.24 | 0.73 | 1.15 | 1.26 | 1.02 | 0.86 | 1.14 | 1.87 | 2.73 |
| CC(C)(O)[C@@H]1CC[C@](C)([C@H]2[C@@H](O)C[C@@]3(C)[C@@H]4C[C@H](O[C@@H]5O[C@H](CO)[C@@H](O)[C@H](O)[C@H]5O)[C@H]5C(C)(C)[C@@H](O[C@@H]6OC[C@@H](O)[C@H](O)[C@H]6O)CC[C@@]56C[C@@]46CC[C@]23C)O1 [AS4, astragaloside IV] | 1.16 | 1.24 | 1.33 | 1.11 | 1.07 | 1.11 |  |  |  | 1.41 |
| CC(C)(O)[C@@H]1CC[C@](C)([C@H]2[C@@H](O)C[C@@]3(C)[C@@H]4C[C@H](O[C@@H]5O[C@H](CO)[C@@H](O)[C@H](O)[C@H]5O)[C@H]5C(C)(C)[C@@H](O[C@@H]6OC[C@@H](O)[C@H](O)[C@H]6O[C@@H]6O[C@H](CO)[C@@H](O)[C@H](O)[C@H]6O)CC[C@@]56C[C@@]46CC[C@]23C)O1 [AS6, astragaloside VI] | 1.18 | 1.19 | 1.41 | 1.29 | 1.30 | 1.25 |  |  |  |  |
| CC(=O)O[C@H]1[C@H](O[C@H]2CC[C@]34C[C@]35CC[C@]3(C)[C@@H]([C@@]6(C)CC[C@@H](C(C)(C)O)O6)[C@@H](O)C[C@@]3(C)[C@@H]5C[C@H](O[C@@H]3O[C@H](CO)[C@@H](O)[C@H](O)[C@H]3O)[C@H]4C2(C)C)OC[C@@H](OC(C)=O)[C@@H]1O [isoAS1, isoastragaloside I] | 0.71 | 1.20 | 1.11 | 1.08 | 1.27 | 0.96 | 1.13 | 1.06 | 1.19 | 1.12 |
| CC(=O)O[C@@H]1[C@@H](O)[C@H](O[C@H]2CC[C@]34C[C@]35CC[C@]3(C)[C@@H]([C@@]6(C)CC[C@@H](C(C)(C)O)O6)[C@@H](O)C[C@@]3(C)[C@@H]5C[C@H](O[C@@H]3O[C@H](CO)[C@@H](O)[C@H](O)[C@H]3O)[C@H]4C2(C)C)OC[C@H]1O [isoAS2, isoastragaloside II] |  |  |  |  |  |  | 1.52 | 0.94 | 1.41 | 1.28 |
| astragaloside I [AS1] |  |  |  |  |  |  | 1.13 | 0.72 | 1.22 |  |
